This note sets out measurements from ChEMBL document CHEMBL5126570, “Synthesis, in vitro, in silico and in vivo hypoglycemic and lipid-lowering effects of 4-benzyloxy-5-benzylidene-1,3-thiazolidine-2,4-diones mediated by dual PPAR α/γ modulation” (Bioorg Med Chem Lett, 2022).

For series [1], the system named is 3T3-L1. As to the kind of experiment: Cytotoxicity against adipocyte differentiated mouse 3T3-L1 cells at 100 uM by MTT assay. In kind it is toxicity, cell-based. The settings on record: 3t3-l1, 100 µM.
Series [2] relates to 3T3-L1. Kind of series: Upregulation of PPARgamma mRNA expression in adipocyte differentiated mouse 3T3-L1 cells assessed as fold increase in PPARgamma expression at 10 uM measured after 24 hrs. In kind it is functional.
Series [3] deals with 3T3-L1. As to the kind of experiment: Upregulation of PPARalpha mRNA expression in adipocyte differentiated mouse 3T3-L1 cells assessed as fold increase in PPARalpha expression at 10 uM measured after 24 hrs. In kind it is functional.
The test system of series [4] is 3T3-L1. As to the kind of experiment: Upregulation of GLUT-4 mRNA expression in adipocyte differentiated mouse 3T3-L1 cells at 10 uM measured after 24 hrs. The format is functional, cell-based.
Series [5] relates to Mus musculus. As to the kind of experiment: Antidiabetic activity in nicotinamide and streptozotocin induced hyperglycemic mouse model assessed as reduction in blood glucose at 100 mg/kg, IG administered as single dose and measured after 7 hrs. The format is functional. Further details: scale not given: the % may be the effect or the level left.
In series [6] the test system is Mus musculus. As to the kind of experiment: Antidiabetic activity in nicotinamide and streptozotocin induced hyperglycemic mouse model assessed as reduction in triglyceride level at 100 mg/kg, IG administered as single dose and measured on day 0 (reference value: 92 +/- 10 mg/dl). In kind it is functional.
For series [7], the system named is Mus musculus. Kind of series: Antidiabetic activity in nicotinamide and streptozotocin induced hyperglycemic mouse model assessed as reduction in triglyceride level at 100 mg/kg, IG administered as single dose and measured on day 1 (reference value: 88 +/- 6 mg/dl). In kind it is functional.
For series [8], the system named is Mus musculus. As to the kind of experiment: Antidiabetic activity in nicotinamide and streptozotocin induced hyperglycemic mouse model assessed as reduction in triglyceride level at 100 mg/kg, IG administered as single dose and measured on day 3 (reference value: 95 +/- 5 mg/dl). In kind it is functional.
Series [9] concerns Mus musculus. Kind of series: Antidiabetic activity in nicotinamide and streptozotocin induced hyperglycemic mouse model assessed as reduction in triglyceride level at 100 mg/kg, IG administered as single dose and measured on day 5 (reference value: 93 +/- 10 mg/dl). In kind it is functional.
Series [10] addresses T1, Peroxisome proliferator-activated receptor gamma (Homo sapiens) (UniProt P37231).
T1 sequence (whole entry): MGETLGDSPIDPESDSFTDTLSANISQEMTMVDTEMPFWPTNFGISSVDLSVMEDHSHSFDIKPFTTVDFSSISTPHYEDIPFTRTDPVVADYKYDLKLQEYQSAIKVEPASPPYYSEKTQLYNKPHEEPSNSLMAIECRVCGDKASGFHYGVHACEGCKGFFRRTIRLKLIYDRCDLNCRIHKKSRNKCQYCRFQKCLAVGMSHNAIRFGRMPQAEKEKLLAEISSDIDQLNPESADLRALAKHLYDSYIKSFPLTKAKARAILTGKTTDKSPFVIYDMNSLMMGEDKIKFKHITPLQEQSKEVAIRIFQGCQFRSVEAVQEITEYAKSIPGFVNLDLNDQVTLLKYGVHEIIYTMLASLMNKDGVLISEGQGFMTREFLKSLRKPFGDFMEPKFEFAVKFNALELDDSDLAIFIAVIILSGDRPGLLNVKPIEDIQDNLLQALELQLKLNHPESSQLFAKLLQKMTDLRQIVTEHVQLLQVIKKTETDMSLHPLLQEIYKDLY
Kind of series: Binding affinity to PPARgamma (unknown origin) assessed as change in binding free energy. The settings on record: filed as modulator.

The nature of series [11]: Lipophilicity, logP of compound. In kind it is physicochemical. The settings on record: octanol/water.
Series [12] concerns 3T3-L1. Kind of series: Upregulation of PPARgamma mRNA expression in adipocyte differentiated mouse 3T3-L1 cells at 10 uM measured after 24 hrs. The format is functional, cell-based.

Calls of active or inactive are those of the source. The rule behind the calls is not given here.

One may read the logP as a log measure of how a compound divides between an organic and an aqueous phase. Consider `O=C1NC(=O)/C(=C/c2ccc(OCc3ccc(Cl)cc3)cc2)S1`, for which the Activity result in the series with 3T3-L1 [1] is “Non-Toxic”; in the series with Mus musculus [5], -68%; with Mus musculus [6], 90 mg/dL; in the series on Mus musculus [7], 75 mg/dL; in the series on Mus musculus [8] it was 77 mg/dL; in the series on Mus musculus [9], 75 mg/dL. For the same compound, the “fold change (FC)” value in the series with 3T3-L1 [2] is 5; in the series with 3T3-L1 [3], 2. In addition, in the series with 3T3-L1 [4], the outcome was Active. In addition, the deltaG in series [10] was -7.69. In addition, the logP in series [11] is 3.53.

In the case of `COc1cc(/C=C2\SC(=O)NC2=O)ccc1OCc1ccc(C)cc1`, in the series with 3T3-L1 [1], the Activity result is recorded as “Non-Toxic”.

As for `N#Cc1ccccc1COc1ccc(/C=C2\SC(=O)NC2=O)cc1`, in the series on 3T3-L1 [1], the Activity result is listed as “Non-Toxic”. Also, the outcome in the series on 3T3-L1 [12] was Active.

Take `O=C1N=C(O)S/C1=C\c1ccc(OCc2ccccc2)cc1`: the result in the series on 3T3-L1 [12] and in the series with 3T3-L1 [4] was Active. Moreover, in the series with 3T3-L1 [3], the “fold change (FC)” value was 2. For the same compound, the Activity with Mus musculus [5] was determined as 38%; in the series on Mus musculus [6] it was 97 mg/dL; in the series on Mus musculus [7] it was 70 mg/dL; in the series on Mus musculus [8], 69 mg/dL; in the series on Mus musculus [9], 62 mg/dL. The deltaG in series [10] is -7.43.

Regarding `COc1cc(/C=C2\SC(=O)NC2=O)ccc1OCc1ccc(Cl)cc1`, in the series with 3T3-L1 [1], the Activity entry was “Non-Toxic”. For the same compound, the result in the series on 3T3-L1 [12] and in the series with 3T3-L1 [4] was Active.

For the compound `CC(C)OC(=O)C(C)(C)Oc1ccc(C(=O)c2ccc(Cl)cc2)cc1` [FENOFIBRATE], the Activity in the series with Mus musculus [6] worked out at 88 mg/dL; with Mus musculus [7], 65 mg/dL; with Mus musculus [8], 62 mg/dL; with Mus musculus [9], 58 mg/dL.

With `Cc1ccc(COc2ccc(/C=C3\SC(O)=NC3=O)cc2)cc1`, the Activity entry was “Non-Toxic” with 3T3-L1 [1]; 82% in the series with Mus musculus [5]; 93 mg/dL in the series on Mus musculus [6]; 88 mg/dL in the series on Mus musculus [7]; 74 mg/dL with Mus musculus [8]; 70 mg/dL in the series with Mus musculus [9]. Further, the “fold change (FC)” value is listed as 5 with 3T3-L1 [2] and 2 in the series with 3T3-L1 [3]. Also, the result in the series with 3T3-L1 [4] was Active. For the same compound, the deltaG in [10] was -7.72. Moreover, the logP in series [11] is 3.33.

As for `COc1cc(/C=C2\SC(=O)NC2=O)ccc1OCc1ccccc1C#N`, the Activity result in the series on 3T3-L1 [1] was “Non-Toxic”.

For the compound `COc1cc(/C=C2\SC(=O)NC2=O)ccc1OCc1ccccc1`, the Activity result in the series on 3T3-L1 [1] was “Non-Toxic”. In addition, the outcome in the series with 3T3-L1 [4] was Active.

Turning to `O=C1NC(=O)/C(=C/c2ccc(OCc3ccccc3)cc2)S1`, the Activity entry in the series with 3T3-L1 [1] is given as “Non-Toxic”. Moreover, in series [11], the lipophilicity (logP) turned out to be 3.

Regarding `N#Cc1ccccc1-c1ccc(COc2ccc(/C=C3\SC(=O)NC3=O)cc2)cc1`, the deltaG in series [10] is -7.84. Moreover, the logP in [11] is 4.94.

Consider `COc1cc(/C=C2\SC(=O)NC2=O)ccc1OCc1ccc(-c2ccccc2C#N)cc1`, for which the Activity result in the series on 3T3-L1 [1] was “Non-Toxic”. Also, in the series with 3T3-L1 [4], the result was Active.
